Measured values reported in patent US9023882B2, “5-membered nitrogen containing heterocyclic derivatives and pharmaceutical compositions comprising the same” (Kissei Pharmaceutical Co., Ltd., priority 2007, dated 2015).

Columns and labels:
[1] = target: Xanthine oxidase (from bovine milk, Sigma) (Bos taurus (Bovine), UniProt P80457); assay: Xanthine oxidase inhibitory activity; format: biochemical; conditions: absorbance at 290 nm
Procedure, shortened: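 Bovine milk enzyme at 0.02 units/mL in PBS was mixed with compound (DMSO stock diluted in PBS) and 200 μM xanthine stock, reacting 10 min at room temperature. Uric acid formation was read as absorbance at 290 nm; IC50 was derived with no-xanthine wells as 0% and no-compound control as 100%.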

[2] = test system: BBMV from human kidney cortex; assay: Inhibitory activity of uric acid transport with brush-border membrane vesicles (BBMV); format: biochemical; conditions: test compound 100 μM; uptake of 14C-labeled uric acid into human kidney cortex BBMV
Procedure: Inhibitory activity of uric acid transport of test compounds was performed on the basis of methods described in a reference (Am. J. Physiol. 266 (Renal Fluid Electrolyte Physiol. 35): F797-F805, 1994) with a partial modification.
(1) Preparation of BBMV from Human Kidney Cortex
BBMV from human kidney cortex were purchased from KAC. Renal cortex was dissected from human kidney and cut into small pieces. Then, the cortex was homogenized in 5 volumes of ice-cold isotonic buffer (300 mM mannitol, 5 mM ethylene glycol-bis-(β-aminoethylether)-N,N,N′,N′-tetraacetic acid (EGTA), 12 mM tris(hydroxymethyl)aminomethane (Tris).HCl, pH 7.4). After adding 1 M magnesium chloride to a final concentration of 12 mM, and then the suspension was mixed and allowed to stand on ice for 15 minutes. The homogenized solution was centrifuged at 2,500×g for 15 minutes at 4° C., furthermore, the supernatant was centrifuged at 30,000×g for 30 minutes at 4° C. The pellet was resuspended in ice-cold buffer 1 (150 mM mannitol, 2.5 mM EGTA, 6 mM Tris.HCl, pH 7.4). After adding 1 M magnesium chloride to a final concentration of 12 mM, and then the suspension was mixed and allowed to stand on ice for 15 minutes. After centrifugation again at 2,500×g for 15 minutes at 4° C., furthermore, the supernatant was centrifuged at 30,000×g for 30 minutes at 4° C. The pellet was resuspended in ice-cold buffer 2 (100 mM mannitol, 100 mM potassium gluconate, 20 mM 2-[4-(2-hydroxyethyl)-1-piperazinyl]-ethanesulfonic acid (Hepes)-Tris, pH 7.4). After centrifugation at 30,000×g for 30 minutes at 4° C., the pellet was resuspended in buffer 2, and then the protein concentration was determined
(2) Preparation of Test Compounds […]
BBMV were thawed on ice. […] The uptake of uric acid into BBMV was measured by the rapid-filtration technique. […] Furthermore, filters were washed twice with 3 mL of stop solution and dissolved in 10 mL of Filter-Count (PerkinElmer), and the radioactivity was counted in a liquid scintillation counter (PerkinElmer). The radioactivity associated with the filters in the absence of BBMV was used as corrections. […]

human URAT1 = human URAT1 (Homo sapiens (Human), UniProt Q96S37); assay: Inhibitory activity of uric acid transport with human URAT1 expressing cells; format: cell-based; conditions: COS-7; test compound 100 μM; 14C-labeled uric acid uptake in COS7 cells transiently expressing human URAT1
Procedure: (1) Preparation of Transiently Human URAT1 Expressing Cells
Full length human URAT1 cDNA (NCBI Accession No. NM_144585) was subcloned into expression vector, pcDNA3.1 (Invitrogen). Human URAT1 expression vector was transfected into COS7 cells (RIKEN CELL BANK RCB0539) using Lipofectamine 2000 (Invitrogen). COS7 cells were cultured in collagen-coated 24 well plates (Asahi Techno Glass) at 2×10^5/well in D-MEM culture medium (Invitrogen) containing 10% fetal bovine serum (Sanko Junyaku) for 2 hours at 37° C. under the condition of 5% CO2. For 1 well, 2 μL of Lipofectamine 2000 was diluted in 50 μL of OPTI-MEM (Invitrogen) and allowed to stand at room temperature for 7 minutes (hereinafter referred to as Lipo2000-OPTI). For 1 well, 0.8 μg of human URAT1 expression vector was diluted in 50 μL of OPTI-MEM (Invitrogen) and combined gently with Lipo2000-OPTI. After standing at room temperature for 25 minutes, the mixture was added to COS7 cells at 100 μL/well. Furthermore, COS7 cells were cultured for 2 days at 37° C. under the condition of 5% CO2 and used for measuring inhibitory activity on the uptake.
(2) Preparation of Test Compounds
Test compounds were dissolved in DMSO (Wako) at 10 mM concentration and then diluted to 2 times higher concentration than intended with pre-treatment buffer (125 mM sodium gluconate, 4.8 mM potassium gluconate, 1.2 mM potassium dihydrogen phosphate, 1.2 mM magnesium sulfate, 1.3 mM calcium gluconate, 5.6 mM glucose, 25 mM Hepes, pH 7.4). Pre-treatment buffer without test compounds was used for control. […]
All tests were performed on hot-plate at 37° C. […] After mixing, the radioactivity was counted in a liquid scintillation counter (PerkinElmer). The radioactivity in COST cells not transfected with URAT1 expression vector was also counted under the same condition as control. […] Percent inhibition (%)=[1−(B−C)/(A−C)]×100 A: Radioactivity in control B: Radioactivity in the case of addition of test compounds C: Radioactivity in COST cells not transfected with URAT1 expression vector

serum uric acid = assay: Serum hypouricemic effect; format: in vivo; conditions: 1 mg/kg oral, male CD (SD) IGS rats, 2 hours after administration
Procedure: (1) Method for Measurement
Test compounds at 1 mg/kg suspended in 0.5% methylcellulose solution were administered orally to overnight fasted male CD (SD) IGS rats (5-week-old, Charls River Japan). At 2 hours after administration, blood was collected under ether anesthesia from abdominal aorta, and serum was separated according to general method. Serum uric acid values were determined by use of uric acid measurement kit (Uric acid C-Test Wako: Wako), and percent decrease in uric acid was calculated according to the formula described below. Percent decrease in uric acid (%)=(Serum uric acid values in control animals−Serum uric acid values in animals administered test compounds)×100/Serum uric acid values in control animals (2) Results

Sequence of human URAT1 (Q96S37 whole entry): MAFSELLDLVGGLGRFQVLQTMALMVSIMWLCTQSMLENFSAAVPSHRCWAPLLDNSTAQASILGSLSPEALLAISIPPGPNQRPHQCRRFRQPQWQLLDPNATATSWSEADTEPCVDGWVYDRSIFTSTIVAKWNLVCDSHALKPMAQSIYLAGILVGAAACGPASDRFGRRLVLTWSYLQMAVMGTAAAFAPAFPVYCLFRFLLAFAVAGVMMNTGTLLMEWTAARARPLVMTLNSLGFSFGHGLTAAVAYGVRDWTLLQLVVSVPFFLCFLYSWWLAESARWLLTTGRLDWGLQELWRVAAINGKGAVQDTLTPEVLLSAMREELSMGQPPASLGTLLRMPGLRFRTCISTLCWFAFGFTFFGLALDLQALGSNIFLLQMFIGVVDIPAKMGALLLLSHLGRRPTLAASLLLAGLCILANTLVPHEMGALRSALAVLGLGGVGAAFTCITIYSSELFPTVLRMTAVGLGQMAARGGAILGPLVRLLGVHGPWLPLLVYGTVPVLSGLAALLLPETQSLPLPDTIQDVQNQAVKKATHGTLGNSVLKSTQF
Sequence of Xanthine oxidase (from bovine milk, Sigma) (P80457 whole entry): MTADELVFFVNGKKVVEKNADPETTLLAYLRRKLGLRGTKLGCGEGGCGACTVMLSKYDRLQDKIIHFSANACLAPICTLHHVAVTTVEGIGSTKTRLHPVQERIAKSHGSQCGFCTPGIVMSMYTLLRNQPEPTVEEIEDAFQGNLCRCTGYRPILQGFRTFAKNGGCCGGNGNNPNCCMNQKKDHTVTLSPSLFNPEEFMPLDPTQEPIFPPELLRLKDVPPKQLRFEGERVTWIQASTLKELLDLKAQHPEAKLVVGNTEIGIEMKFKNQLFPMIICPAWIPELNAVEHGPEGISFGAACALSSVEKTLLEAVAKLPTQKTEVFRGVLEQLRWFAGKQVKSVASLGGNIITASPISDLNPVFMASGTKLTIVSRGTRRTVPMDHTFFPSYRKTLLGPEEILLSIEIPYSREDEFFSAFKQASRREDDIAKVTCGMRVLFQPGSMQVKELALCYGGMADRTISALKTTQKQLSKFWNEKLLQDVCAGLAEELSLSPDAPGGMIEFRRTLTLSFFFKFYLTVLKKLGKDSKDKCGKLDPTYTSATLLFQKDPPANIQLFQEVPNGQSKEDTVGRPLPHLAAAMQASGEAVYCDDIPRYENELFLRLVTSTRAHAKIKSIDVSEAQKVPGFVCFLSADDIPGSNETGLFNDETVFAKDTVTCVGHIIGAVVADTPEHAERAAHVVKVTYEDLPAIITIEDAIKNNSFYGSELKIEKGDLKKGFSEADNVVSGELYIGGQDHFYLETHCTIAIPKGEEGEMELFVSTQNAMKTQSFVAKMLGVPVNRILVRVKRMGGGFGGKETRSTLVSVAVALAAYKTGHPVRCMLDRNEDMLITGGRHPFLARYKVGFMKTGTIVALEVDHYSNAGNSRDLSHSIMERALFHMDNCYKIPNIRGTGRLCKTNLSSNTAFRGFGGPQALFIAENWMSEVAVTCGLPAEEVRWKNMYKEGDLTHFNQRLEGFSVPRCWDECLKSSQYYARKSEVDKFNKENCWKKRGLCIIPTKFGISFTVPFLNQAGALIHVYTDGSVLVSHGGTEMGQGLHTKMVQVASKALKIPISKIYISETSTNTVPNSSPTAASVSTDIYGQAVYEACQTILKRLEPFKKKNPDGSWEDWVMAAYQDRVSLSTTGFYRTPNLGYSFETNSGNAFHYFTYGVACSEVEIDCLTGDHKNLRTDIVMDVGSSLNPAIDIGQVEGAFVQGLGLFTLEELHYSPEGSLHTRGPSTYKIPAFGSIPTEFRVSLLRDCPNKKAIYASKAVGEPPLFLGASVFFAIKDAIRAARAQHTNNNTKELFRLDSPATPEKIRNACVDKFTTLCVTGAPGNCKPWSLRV

Row | IC50 ([1]; 0.02 units/mL, xanthine 200 μM, 10 minutes at room temperature) | inhibition at 100 µM (human URAT1) | IC50 ([1]; 100 μM xanthine final) | SMILES | inhibition % [2] | Percent decrease in uric acid (hypouricemic effect) (serum uric acid)
1 | 52.1 nM | 77% |  | N#Cc1cn(-c2cc(C(=O)O)ccn2)cc1-c1ccccc1 [Example 20, 2-(3-Cyano-4-phenylpyrrole-1-yl)isonicotinic acid] | >90% | 
2 |  | 91% | 7.8 nM | N#Cc1cn(-c2ccc(C(=O)O)c(O)c2)cc1-c1cccs1 [Example 306] | >90% | 
3 |  | 89% | 3.3 nM | CCCCc1cn(-c2ccc(C(=O)O)c(O)c2)cc1C#N [Example 355] | >90% | 
4 |  |  | 6.2 nM | N#Cc1cn(-c2ccc(C(=O)O)c(O)c2)cc1-c1ccccc1 [Example 301] |  | over 50%
5 |  |  | 5.2 nM | N#Cc1cn(-c2ccc(C(=O)O)c(O)c2)cc1-c1ccsc1 [Example 314] |  | over 50%
